Data reported in ChEMBL document CHEMBL1155687, “Anthoptilides A-E, new Briarane diterpenes from the Australian sea pen Anthoptilum cf. kukenthali” (J Nat Prod, 2000).

Each molecule was assayed against T1, Adenosine receptor A1 (Rattus norvegicus, UniProt P25099) (assay: Displacement of [3H]DPCPX from adenosine A1 receptor in rat brain membrane).
T1 sequence (P25099 whole entry): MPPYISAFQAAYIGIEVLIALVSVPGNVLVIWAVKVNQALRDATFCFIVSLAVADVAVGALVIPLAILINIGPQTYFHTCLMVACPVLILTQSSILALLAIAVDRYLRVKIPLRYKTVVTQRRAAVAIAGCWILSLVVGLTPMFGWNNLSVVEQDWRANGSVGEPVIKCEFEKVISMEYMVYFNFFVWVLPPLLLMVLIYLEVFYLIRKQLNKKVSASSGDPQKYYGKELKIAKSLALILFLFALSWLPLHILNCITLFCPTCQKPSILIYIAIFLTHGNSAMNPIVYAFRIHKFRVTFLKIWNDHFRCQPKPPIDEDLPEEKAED
Format: cell membranes

IC50 | Compound
500 µM | CC(=O)O[C@H]1C(=O)C=C(C)[C@@H]2CC3=C(C)C(=O)O[C@H]3/C=C(/C)CC[C@@H](OC(=O)c3ccccc3)[C@]21C [ANTHOPTILIDE D]
490 µM | CCC(=O)O[C@@H]1CC/C(C)=C\[C@@H]2OC(=O)C(C)=C2C[C@H]2C(C)=C[C@H](OC(C)=O)[C@H](OC(C)=O)[C@]12C [ANTHOPTILIDE E]

Further lines, the molecule ahead of its results:

Compound | IC50
CC(=O)O[C@H]1C(=O)C=C(C)[C@@H]2CC3=C(C)C(=O)O[C@H]3/C=C(/C)CC[C@@H](OC(=O)C(C)C)[C@]21C [ANTHOPTILIDE B] | 45 µM
CCC(=O)O[C@@H]1CC/C(C)=C\[C@@H]2OC(=O)C(C)=C2C[C@H]2C(C)=CC(=O)[C@H](OC(C)=O)[C@]12C [ANTHOPTILIDE C] | 3.1 µM
C/C=C(\C)C(=O)O[C@@H]1CC/C(C)=C\[C@@H]2OC(=O)C(C)=C2C[C@H]2C(C)=CC(=O)[C@H](OC(C)=O)[C@]12C [ANTHOPTILIDE A] | 420 µM
